The subject of series [1] is antigen-adjuvant-induced inflammation. Kind of series: antigen-adjuvant-induced inflammation, right hind paw swelling by volumetry. The series is classed as in vivo, rats. To be noted: 10 mg/kg intraperitoneally. The method, then: At first, five groups each consisting of five SD male rats weighing 180 to 220 g (total 25 rats) were prepared, and each rat was measured for a size of the subplantar region of the right hind paw. As an antigen to cause an antigen-adjuvant-induced inflammation, 0.2 mg/rat of egg-white albumin was used. Further, as an immune aid (adjuvant), a mixture consisting of 4 mg/rat of aluminum hydroxide and 0.1 ml/rat of pertussis vaccine was prepared.
One out of the five groups was used as Control group. A physiological saline solution of 10 % Nikkol (trade name, dissolving aid, supplied by Nikko Chemical Co., Ltd.) was administered intraperitoneally to each rat, and 0.5 hour after the administration of the physiological saline solution of 10 % Nikkol, the above antigen and adjuvant were administered intracutaneously into the subplantar region of the right hind paw. Then, 0.5, 1, 2, 4, 6, 12 and 24 hours after the administration of the antigen and adjuvant, the swelling on the subplantar region of the right hind paw of each rat was measured by volumetry. And, the average of swelling ratios of the group in every measurement was determined on the basis of the measurement values of the sizes of subplantar regions of the right hind paws of the rats obtained before the administration of the physiological saline solution of 10 % Nikkol.
One of the remaining four groups was used as Example group @. A physiological saline solution of 10 % Nikkol containing VIE-MAN was administered intraperitoneally into each rat of this group in such a dose that the amount of VIE-MAN was 10 mg/kg, and 0.5 hours after the administration of the physiological saline solution of 10 % Nikkol containing VIE-MAN, the above antigen and adjuvant were administered intracutaneously into the subplantar region of the right hind paw. Thereafter, the swelling on the subplantar region of the right hind paw of each rat was measured in the same manner as that for Control group, and the average of swelling ratios of the group in every measurement was determined.
The same procedure as that for Example group ⑧ was carried out except that a physiological saline solution of 10 % Nikkol containing hydrocortisone which was an anti-inflammatory preparation (immunosuppressive preparation) in place of the physiological saline solution of 10 % Nikkol containing VIE-MAN was administered intraperitoneally in such a dose that the amount of the hydrocortisone was 10 mg/kg.
The same procedure as that for Example group ⑧ was carried out except that a physiological saline solution of 10 % Nikkol containing diphenhydramine which was an antihistamine preparation in place of the physiological saline solution of 10 % Nikkol containing VIE-MAN was administered intraperitoneally in such a dose that the amount of the diphenhydramine was 10 mg/kg.
The same procedure as that for Example group ⑧ was carried out except that a physiological saline solution of 10 % Nikkol containing indomethacin which was a nonsteroidal anti-inflammatory preparation (antipyretic analgesic antiphlogistic preparation) in place of the physiological saline solution of 10 % Nikkol containing VIE-MAN was administered intraperitoneally in such a dose that the amount of the indomethacin was 10 mg/kg.
At first, four groups each consisting of five male SD rats weighing 180 to 220 g (total 20 rats) were prepared, and each rat was measured for a size of the subplantar region of the right hind paw. As an antigen to cause an antigen- adjuvant-induced inflammation, 0.2 mg/rat of egg-white albumin was prepared. Further, as an immune aid (adjuvant), a mixture consisting of 4 mg/rat of aluminum hydroxide and 0.1 ml/rat of pertussis vaccine was prepared.
One out of the four groups was used an Control group, and the procedure for Control group in Example 4 was repeated to determine the average of the swelling ratios as a group unit.

Series [2] relates to carrageenin-induced inflammation. Kind of series: carrageenin-induced inflammation, right hind paw swelling by volumetry. To be noted: Example 7, Fig. 6. It counts as in vivo, rats. How it is done:
Six groups each consisting of five male SD rats weighing 180 to 220 g were used (total 30 rats), and each rat was measured for a size of the subplantar region1 of the right hind paw.
In order to induce carrageenin-induced inflammation, 0.1 ml/rat of a physiological saline solution of 1 % X-carrageenin was prepared.
One out of the six groups was used as Control group. A physiological saline solution of 10 % Nikkol was administered intraperitoneally to each rat of this group, and 0.5 hours after the administration of the physiological saline solution of 10 % Nikkol, 0.1 ml of the physiological saline solution of 1 % X-carrageenin was administered intracutaneously into the subplantar region of the right hind paw of each rat. Then, 0.5, 1, 2, 3 and 4 hours after the administration of […] of the physiological saline solution of 1 % X-carrageenin, the swelling on the subplantar region of the right hind paw of each rat was measured by volumetry, arid the average of swelling ratios of the group in every measurement was determined on the basis of the measurement values of the sizes of subplantar regions of the right hind paws of the rats obtained before the administration of the physiological saline solution of 10 % Nikkol solution.
The procedure for Control group was repeated except that a physiological saline solution of 10 % Nikkol containing VIE-MAN in place of the physiological saline solution of 10 % Nikkol was administered intraperitoneally in such a dose that the amount of VIE-MAN was 10 mg/kg.
The procedure for Control group was repeated except that a physiological saline solution of 10 % Nikkol containing VIE-MAN in place of the physiological saline solution of 10 % Nikkol was administered intraperitoneally in such a dose that the amount of VIE-MAN was 30 mg/kg.
The procedure for Control group was repeated except that a physiological saline solution of 10 % Nikkol containing VIE-MAN in place of the physiological saline solution of 10 % Nikkol was administered intraperitoneally in such a dose that the amount of VIE-MAN was 100 mg/kg.
The procedure for Example groups ⑭, ⑮ and ⑯ was repeated except that a physiological saline solution of 10 % Nikkol containing cortisone acetate which was a steroidal anti-inflammatory preparation (immunosuppressive preparation) in place of the physiological saline solution of 10 % Nikkol containing VIE-MAN was administered intraperitoneally in such a dose that the amount of the cortisone acetate was 10 mg/kg.
The procedure for Example groups ⑭, ⑮ and ⑯ was repeated except that a physiological saline solution of 10 % Nikkol containing indomethacin which was a nonsteroidal anti-inflammatory preparation (antipyretic analgesic antiphlogistic preparation) in place of the physiological saline solution of 10 % Nikkol containing VIE-MAN was administered intraperitoneally in such a dose that the amount of the indomethacin was 10 mg/kg.

Series [3] deals with IgE antibody. It counts as in vivo, rats. The method, then: At first, 20 male SD rats weighing 180 to 220 g were prepared. Egg-white albumin in an amount of 1 mg per rat was prepared as an antigen to induce the IgE antibody-antigen mediating immune response. Further, a mixture of 20 mg/rat of aluminum hydroxide with 0.6 mi/rat of pertussis vaccine was prepared as an immune aid (adjuvant).
Then, the above antigen and the above adjuvant were equally administered intracutaneously into the four footpads of each rat for sensitization.
24 Hours after the sensitization, the footpad swelling of each rat was measured by volumetry to determine the swelling ratio (unit: %). Then, the rats were separated into four groups each consisting of 5 rats such that the average swelling ratio of one group was nearly equal to that of another group.
Thereafter, one of the four groups was used as Control group, and a physiological saline solution of 10 % Nikkol (trade name, dissolving aid, supplied by Nikko Chemical Co., Ltd.) was administered intraperitoneally to each rat for the 11 consecutive days after the group separation, and on 15th day after the group separation, the serum of each rat was collected, and measured for an IgE antibody amount by means of a 48-hour homologous PCA reaction (passive cutaneous anaphylaxis reaction) as an index. In addition, the IgE antibody amount is shown in terms of a maximum dilution (unit: %) of serum showing positive reaction (blue spot having a diameter of not less than 5 mm).
Two groups of the remaining three groups were used as Example groups ⑥ and 0. A physiological saline solution of 10 % Nikkol containing VIE-MAN was administered intraperitoneally to each rat of Example group ⑥ in such a dose that the amount of VIE-MAN was 30 mg/kg/day for 11 days after the group separation. And, a physiological saline solution of 10 % Nikkol containing VIE-MAN was administered intraperitoneally to each rat of Example group 0 every other day (number of days for administration: 6 days) in such a dose that the amount of VIE-MAN was 100 mg/kg/day for 11 days after the group separation. Then, on 15th day after the group separation, the serum of each rat was collected, and measured for an IgE antibody amount in the same manner as that for Control group.
One remaining group of the four groups was used as Comparative Example group @. A physiological saline solution of 10 % Nikkol containing hydrocortisone which was an adrenocortical hormone preparation was administered intraperitoneally to each rat in such a dose that the amount of the hydrocortisone was 10 mg/kg/day for the consecutive 11 days after the group separation. Then, on 15th day after the group separation, the serum of each rat was collected, and measured for an IgE antibody amount in the same manner as that for Example groups 6 and ⑦.

Series [4] relates to stomach (mucosal ulcer in the glandular portion). It counts as in vivo, rats. To be noted: rat, in vivo. How it is done:
15 male SD rats weighing 180 to 220 g were used. These rats were fasted for 24 hours, and separated to three groups each consisting of 5 rats.
Then, one group was used as Control group. A physiological saline solution of 10 % Nikkol was administered intraperitoneally, and the rats were sacrificed with ether 16 hours after the administration. The stomach of each rat was removed, and after 10 ml of physiological saline was injected into the stomachs, the stomachs were fixed by immersing them in a 1 % formalin for 10 minutes. Each stomach was dissected along the greater curvatura, and the length (mm) of mucosal ulcer which occurred in the glandular portion was measured under an anatomical microscope (x 10). The average of the ulcer lengths of the five rats was taken as an ulcer index.
One out of the remaining two groups was used as Example group @. The procedure for Control group was repeated except that a physiological saline solution of 10 % Nikkol containing VIE-MAN in place of the physiological saline solution of 10 % Nikkol was administered intraperitoneally in such a dose that the amount of VIE-MAN was 300 mg/kg, and the ulcer index was determined.
The remaining one group was used as Comparative Example group ⓘ. The procedure for Example group 17 was repeated except that a physiological saline solution of 10 % Nikkol containing indomethacin, which was a nonsteroidal anti-inflammatory preparation (antipyretic analgesic antiphlogistic preparation), in place of the physiological saline solution of 10 % Nikkol was administered intraperitoneally in such a dose that the amount of the indomethacin was 20 mg/kg, and the ulcer index was determined.

Series [5] deals with delayed-type hypersensitivity. Kind of series: picryl chloride-induced delayed-type hypersensitivity, ear swelling ratio. It counts as in vivo, mice. To be noted: Example 1, Fig. 1; VIE-MAN 10, 30, 100 mg/kg/day versus methotrexate 1 mg/kg/day, intraperitoneally. How it is done:
76 Male mice (C57BU6Ncrj) weighing 18 to 20 g were used. The abdominal portion of each mouse was shaved such that the shaved portion was about 1 cm^2. Thereafter, 20 µl of an ethanol solution of 7 % picryl chloride was applied to the shaved portions for sensitization.
Eighteen out of the 76 mice were used as Control group. A physiological saline solution containing 10 % Nikkol (Nikkol: trade name, dissolving aid, supplied by Nikko Chemical Co., Ltd.) was administered intraperitoneally to the 18 mice for the consecutive 5 days after the sensitization, and ear thickness of each of these 18 mice was measured on the eighth day after the sensitization. Thereafter, 20 µl of an olive oil solution of 1 % picryl chloride was applied to the ear of each of the mice to cause delayed-type hypersensitivity.
The above pharmaceutical solutions were administered intraperitoneally at the above-described doses for the five consecutive days after the sensitization, and ear thickness of each of these mice was measured on the eighth day after the sensitization. Thereafter, 20 µl of an olive oil solution of 1 % picryl chloride was applied to the ear of each of the mice to cause delayed-type hypersensitivity.
24 Hours after the delayed-type hypersensitivity was induced, the swelling of the ear of each of the mice of Control group and Example groups ①, ②and③ was measured with a dial thickness gauge. On the basis of the values of the ear thickness measured before the application of the olive oil solution of 1 % picryl chloride, the swelling ratio of each of Example groups ①, ② and ③ and Control group was determined.
And, the swelling ratio of the mice was determined.
At first, the abdominal portion of each of forty ICR male mice weighing 20 to 25 g was shaved such that the shaved portion was about 1 cm^2. Thereafter, 20 µl of an ethanol solution of 7 % picryl chloride was applied to the shaved portions for sensitization.

SMILES strings stand for the structures.

In the case of `CN(C)CCOC(c1ccccc1)c1ccccc1` [diphenhydramine, reference compound], the “inhibition activity against antigen-adjuvant-induced inflammations” value in series [1] (Example 4, Fig. 3) was “no inhibition activity was found”.
Take `CC(=O)OCC(=O)[C@@]1(O)CC[C@H]2[C@@H]3CCC4=CC(=O)CC[C@]4(C)[C@H]3C(=O)C[C@@]21C` [cortisone acetate]: the “inhibition activity against carrageenin-induced inflammation” value in series [2] (VIE-MAN 10, 30, 100 mg/kg, depending upon its dose, comparators 10 mg/kg, intraperitoneally) is “significant activity at and after 0.5 hour”. The “inhibition activity against carrageenin-induced inflammation compared with VIE-MAN” value in series [2] (comparators 10 mg/kg intraperitoneally) is “lower than that of VIE-MAN”.
As for `C[C@]12CCC(=O)C=C1CC[C@@H]1[C@@H]2[C@@H](O)C[C@@]2(C)[C@H]1CC[C@]2(O)C(=O)CO` [hydrocortisone, reference compound], the “inhibition activity against the IgE antibody production” value in series [3] (Example 3 / Comparative Example 2, VIE-MAN 30 or 100 mg/kg/day, hydrocortisone 10 mg/kg/day, intraperitoneally) is on record as “lower than that of VIE-MAN”. For the same molecule, the “IgE antibody amount in serum, Average value” in series [3] (group average, (total 11 days) intraperitoneally, maximum dilution of serum showing positive reaction) is listed as 473.6. The “inhibition activity against antigen-adjuvant-induced inflammations” value in series [1] (Example 4, Fig. 3) is given as “no inhibition activity was found”.
For `Cc1c(C)c2c(c(C)c1OC1OC(CO)C(O)C(O)C1O)CCC(C)(CCCC(C)CCCC(C)CCCC(C)C)O2` (racemic) [VIE-GAL, dl-a-tocopheryl-,B-galactoside], in series [1] (Example 5, Fig. 4, 10 mg/kg), the “inhibition activity against antigen-adjuvant-induced inflammations” value was “also superior”. In addition, the “average of the swelling ratios” value in series [1] (Example 5, Fig. 4, 0.5 hour after administration of antigen and adjuvant, versus Control group) is listed as “significantly lower than that of the swelling ratios of Control group”. The “side effect on the digestive system” value in series [4] is “nearly similar results to that of the test on VIE-MAN”.
For the molecule `CN(Cc1cnc2nc(N)nc(N)c2n1)c1ccc(C(=O)N[C@@H](CCC(=O)O)C(=O)O)cc1` [methotrexate, reference compound], the “preventive and therapeutical effect on delayed-type hypersensitivity (comparison)” value in series [5] is recorded as “VIE-MAN was superior to methotrexate”.
